Test results reported in patent US6423325B1, “Skin care composition” (Conopco, Inc., priority 1999, dated 2002).
Values joined by “and” are separate entries in the source; they are usually repeats but may differ in a detail not shown here. Identical values can stand only once.

Tested on: procollagen-I synthesis in human dermal fibroblasts
Assay: Dot blot assay for procollagen-I protein in dermal fibroblast conditioned medium
Assay type: cell-based
Conditions: 24 hours, primary human foreskin fibroblasts, relative to vehicle treated control value of 100
Description: Primary human foreskin fibroblasts at passage 2 (P2) were seeded into 12-well plates at 10000 cells/cm^2 and maintained for 24 hours in an atmosphere of 5% carbon dioxide and 4% oxygen in Dulbeccos Modified Eagles Medium (DMEM) supplemented with 10% foetal calf serum. After this time the cells were washed with serum free DMEM and then incubated in fresh serum free DMEM for a further 60 hours. The fibroblast monolayers were then washed again with serum free DMEM. Test reagents and vehicle controls were added to the cells in triplicate in a final volume of 0.4 ml/well fresh serum free DMEM and incubated for a further 24 hours.
This fibroblast conditioned medium was either analysed immediately or snap frozen in liquid nitrogen and stored at −70° C. for future analysis. The cells were then counted and data from the dot-blot analysis subsequently standardised to cell number.
Samples of conditioned medium from dermal fibroblasts treated with vehicle (as a control) or test reagents were supplemented with 20 mM dithiothreitol (1:10 dilution of 200 mM stock solution) and 0.1% sodium dodecylsulphate (1:100 dilution of 10% stock solution), mixed well and then incubated at 75° C. for 2 minutes.
A standard for the assay was generated by serial dilution of neat fibroblast conditioned medium from fibroblasts seeded at 10000 cells/cm^2 in a 175 cm^2 flask and maintained in serum free DMEM as described above. Assay samples were subsequently applied in triplicate to a prewetted sheet of Immobilon-P transfer membrane using the 96-well Bio-Dot Apparatus from Bio-Rad as described in the manufacturers guidelines. Approximately 200 μl of medium was applied per well. The medium was allowed to filter through the membrane under gravity (30 minutes) after which the membrane was washed twice with PBS (200 μl). These PBS washes were allowed to filter through the membrane under gravity (2×15 minutes).
The Bio-Dot apparatus was then attached to a vacuum manifold and a third and final PBS wash carried out under suction. The apparatus was disassembled, the membrane removed and quickly cut as required before being placed in blocking buffer overnight at 4° C. Membranes prepared for procollagen-I analysis were blocked with 5% (w/v) non-fat dried milk powder/0.05% Tween 20 in PBS. The following day, the membranes were probed with 1:10000 dilution of primary antibodies to human procollagen-I (MAB1912; rat monoclonal; Chemicon Int. Inc., Temecula, Calif.) for 2 hours at room temperature. The membranes were subsequently washed with TBS/0.05% Tween 20 (3×5 minutes) and then incubated with 1:1000 dilution of ^125I-conjugated anti-rat fragments (Amersham) as required for 1 hour at room temperature. Following this the Immobilon strips were again washed with TBS/Tween 20 (3×5 minutes) before being allowed to dry in air at room temperature.
The dried membranes were wrapped in cellophane and exposed to a Molecular Dynamics storage phosphor screen for 16-18 hours. […] Dot intensity was assessed by computer-assisted image analysis using the quantification tools in ImageQuant™, standardised to cell number and the effects of various test reagents procollagen-I synthesis were determined relative to a vehicle treated control value of 100 arbitrary units.
In order to normalise the results the effects of the test substances were determined relative to a vehicle treated control value of 100 arbitrary units. […]

Row | Structure (SMILES) | Procollagen-I (10 μM) | Procollagen-I (1 μM)
1 | CC/C=C\C/C=C\C/C=C\C/C=C\C/C=C\C/C=C\CCC(=O)O [DHA, Docosahexaenoic acid] | 105.1 arbitrary units | 
2 | CCCCCCCCCCC/C=C\CCCCC(=O)O [PA, Petroselinic acid] |  | 87.6 arbitrary units
3 | CCCCC/C=C\C/C=C\CCCCCCCC(=O)O [linoleic acid] | 111.8 arbitrary units and 110.3 arbitrary units | 99.3 arbitrary units
4 | CCCCCCCC/C=C\CCCCCCCC(=O)O [oleic acid, reference compound] | 102.6 arbitrary units | 
